Where two headings read alike, the source gives them in different places.
Tested on: 284 cell lines
Assay: cells
Method: A screen of 284 cell lines to assess the antiproliferative effect of EHMT2 inhibition was conducted by treating cell lines in 384-well format with a half-log step dilutions of Compound 205 over 10 concentrations with a maximum concentration of 0.1% v/v DMSO. Cells were plated on Day 0 and treated with compound on Day 1. Culture medium was replaced on day 7 and cells redosed. After 10-day incubation, cells were fixed and stained with nuclear dye. Automated fluorescence microscopy was carried out using a Molecular Devices ImageXpress Micro XL high-content imager, and images were collected with a 4× objective. 16-bit TIFF images were acquired and analyzed with MetaXpress 5.1.0.41 software. Cell proliferation was measured by the fluorescence intensity of the incorporated nuclear dye. Cell count IC50 is the test compound concentration at 50% of maximal response of the untreated control.

CNc1cc(C)nc(Nc2ccc(OC)c(OCCCN3CCCC3)c2)n1 [Compound 205]
IC50 (BM-1604, read-out: Cell Count IC50, BM-1604, Prostate): > 10 µM
IC50 (C32TG, read-out: Cell Count IC50, C32TG, Skin, Melanoma): 1 to 10 µM
IC50 (CEM/C1, read-out: Cell Count IC50, CEM-C1, Hematopoietic, Leukemia): > 10 µM
IC50 (CML-T1, read-out: Cell Count IC50, CML-T1, Hematopoietic, Leukemia): 1 to 10 µM
IC50 (D341 Med, read-out: Cell Count IC50, D341 Med, Central Nervous System, Medulloblastoma): 1 to 10 µM
IC50 (HUH-6-clone5, read-out: Cell Count IC50, HUH-6 Clone 5, Liver): 1 to 10 µM
IC50 (Homo sapiens, 22Rv1, read-out: Cell Count IC50, 22Rv1, Prostate): 1 to 10 µM
IC50 (Homo sapiens, 639-V, read-out: Cell Count IC50, 639-V, Bladder): > 10 µM
IC50 (Homo sapiens, 647-V, read-out: Cell Count IC50, 647-V, Bladder): 1 to 10 µM
IC50 (Homo sapiens, 769-P, read-out: Cell Count IC50, 769-P, Kidney): 1 to 10 µM
IC50 (Homo sapiens, 786-0, read-out: Cell Count IC50, 786-O, Kidney): > 10 µM
IC50 (Homo sapiens, A101D, read-out: Cell Count IC50): 1 to 10 µM
IC50 (Homo sapiens, A 172, read-out: Cell Count IC50, A172, Central Nervous System, Glioma): 1 to 10 µM
IC50 (Homo sapiens, A204, read-out: Cell Count IC50, A204, Soft & Connective Tissue, Sarcoma): 0.01 to 0.1 µM
IC50 (Homo sapiens, A253, read-out: Cell Count IC50, A-253, Head and Neck): > 10 µM
IC50 (Homo sapiens, A498, read-out: Cell Count IC50, A498, Kidney): 1 to 10 µM
IC50 (Homo sapiens, A549, read-out: Cell Count IC50, A549, Lung, NSCLC): > 10 µM
IC50 (Homo sapiens, A673, read-out: Cell Count IC50, A-673, Soft & Connective Tissue, Sarcoma): > 10 µM
IC50 (Homo sapiens, A704, read-out: Cell Count IC50, A-704, Kidney): 1 to 10 µM
IC50 (Homo sapiens, A2058, read-out: Cell Count IC50, A2058, Skin, Melanoma): 1 to 10 µM
IC50 (Homo sapiens, A-375, read-out: Cell Count IC50, A375, Skin, Melanoma): 1 to 10 µM
IC50 (Homo sapiens, A-427, read-out: Cell Count IC50, A427, Lung, NSCLC): 1 to 10 µM
IC50 (Homo sapiens, A-431, read-out: Cell Count IC50, A431, Skin, Head and Neck): 1 to 10 µM
IC50 (Homo sapiens, ACHN, read-out: Cell Count IC50, ACHN, Kidney): 1 to 10 µM
IC50 (Homo sapiens, AN3-CA, read-out: Cell Count IC50, AN3 CA, Female GU, Uterus): > 10 µM
IC50 (Homo sapiens, ARH-77, read-out: Cell Count IC50, ARH-77, Hematopoietic, Myeloma): 1 to 10 µM
IC50 (Homo sapiens, ASPC1, read-out: Cell Count IC50, AsPC-1, Pancreas): 1 to 10 µM
IC50 (Homo sapiens, BE(2)-C, read-out: Cell Count IC50, BE(2)C, Central Nervous System, Neuroblastoma): > 10 µM
IC50 (Homo sapiens, BFTC-905, read-out: Cell Count IC50, BFTC-905, Bladder): 0.01 to 0.1 µM
IC50 (Homo sapiens, BHT-101, read-out: Cell Count IC50, BHT-101, Endocrine, Thyroid): 1 to 10 µM
IC50 (Homo sapiens, BPH-1, read-out: Cell Count IC50, BPH1, Prostate): > 10 µM
IC50 (Homo sapiens, BT-20, read-out: Cell Count IC50, BT20, Breast): > 10 µM
IC50 (Homo sapiens, BT-474, read-out: Cell Count IC50, BT474, Breast): 1 to 10 µM
IC50 (Homo sapiens, BT-549, read-out: Cell Count IC50, BT-549, Breast): > 10 µM
IC50 (Homo sapiens, BV-173, read-out: Cell Count IC50, BV-173, Hematopoietic, Leukemia): 1 to 10 µM
IC50 (Homo sapiens, BXPC-3, read-out: Cell Count IC50, BxPC-3, Pancreas): 1 to 10 µM
IC50 (Homo sapiens, BeWo, read-out: Cell Count IC50, BeWo, Placenta): > 10 µM
IC50 (Homo sapiens, C-4-II, read-out: Cell Count IC50, C-4 II, Female GU, Cervix): > 10 µM
IC50 (Homo sapiens, C-33-A, read-out: Cell Count IC50, C-33A, Female GU, Cervix): > 10 µM
IC50 (Homo sapiens, CA46, read-out: Cell Count IC50, CA46, Hematopoietic, Lymphoma): 1 to 10 µM
IC50 (Homo sapiens, CAKI-1, read-out: Cell Count IC50, Caki-1, Kidney): 1 to 10 µM
IC50 (Homo sapiens, CAKI-2, read-out: Cell Count IC50, Caki-2, Kidney): 1 to 10 µM
IC50 (Homo sapiens, CAL-27, read-out: Cell Count IC50, Cal 27, Head and Neck): 1 to 10 µM
IC50 (Homo sapiens, CAL-62, read-out: Cell Count IC50, CAL-62, Endocrine, Thyroid): > 10 µM
IC50 (Homo sapiens, CAMA-1, read-out: Cell Count IC50, CAMA-1, Breast): 1 to 10 µM
IC50 (Homo sapiens, CAPAN-1, read-out: Cell Count IC50, Capan-1, Pancreas): > 10 µM
IC50 (Homo sapiens, CCF-STTG1, read-out: Cell Count IC50, CCF-STTG1, Central Nervous System, Glioma): 1 to 10 µM
IC50 (Homo sapiens, CCRF-CEM, read-out: Cell Count IC50, CCRFCEM, Hematopoietic, Leukemia): > 10 µM
IC50 (Homo sapiens, CFPAC-1, read-out: Cell Count IC50, CFPAC-1, Pancreas): > 10 µM
IC50 (Homo sapiens, CGTH-W-1, read-out: Cell Count IC50, CGTH-W-1, Endocrine, Thyroid): > 10 µM
IC50 (Homo sapiens, CHL-1, read-out: Cell Count IC50, CHL-1, Skin, Melanoma): > 10 µM
IC50 (Homo sapiens, CHP-212, read-out: Cell Count IC50, CHP-212, Central Nervous System, Neuroblastoma): 0.1 to 1 µM
IC50 (Homo sapiens, COLO 201, read-out: Cell Count IC50, Colo 201, Colon): 1 to 10 µM
IC50 (Homo sapiens, COLO 205, read-out: Cell Count IC50, Colo 205, Colon): 1 to 10 µM
IC50 (Homo sapiens, COLO 320DM, read-out: Cell Count IC50, Colo 320DM, Colon): > 10 µM
IC50 (Homo sapiens, COLO-320-HSR, read-out: Cell Count IC50, Colo 320 HSR, Colon): > 10 µM
IC50 (Homo sapiens, COLO-829, read-out: Cell Count IC50, COLO 829, Skin, Melanoma): 1 to 10 µM
IC50 (Homo sapiens, COR-L23, read-out: Cell Count IC50, COR-L23, Lung, NSCLC): 1 to 10 µM
IC50 (Homo sapiens, COR-L105, read-out: Cell Count IC50, COR-L105, Lung, NSCLC): 1 to 10 µM
IC50 (Homo sapiens, Ca-Ski, read-out: Cell Count IC50, Ca Ski, Female GU, Cervix): 0.1 to 1 µM
IC50 (Homo sapiens, Calu-1, read-out: Cell Count IC50, Calu1, Lung, NSCLC): > 10 µM
IC50 (Homo sapiens, Calu-6, read-out: Cell Count IC50, Calu6, Lung, NSCLC): > 10 µM
IC50 (Homo sapiens, Caov-3, read-out: Cell Count IC50, CaOV3, Female GU, Ovary): 1 to 10 µM
IC50 (Homo sapiens, Capan-2, read-out: Cell Count IC50, Capan-2, Pancreas): > 10 µM
IC50 (Homo sapiens, ChaGo-K-1, read-out: Cell Count IC50, ChaGoK1, Lung, NSCLC): > 10 µM
IC50 (Homo sapiens, D283 Med, read-out: Cell Count IC50, D283 Med, Central Nervous System, Medulloblastoma): 1 to 10 µM
IC50 (Homo sapiens, DBTRG-05MG, read-out: Cell Count IC50, DBTRG-05MG, Central Nervous System, Glioma): 1 to 10 µM
IC50 (Homo sapiens, DLD-1, read-out: Cell Count IC50, DLD-1, Colon): > 10 µM
IC50 (Homo sapiens, DMS-53, read-out: Cell Count IC50, DMS53, Lung, SCLC): 0.1 to 1 µM
IC50 (Homo sapiens, DMS-114, read-out: Cell Count IC50, DMS114, Lung, SCLC): 1 to 10 µM
IC50 (Homo sapiens, DOHH-2, read-out: Cell Count IC50, DOHH-2, Hematopoietic, Lymphoma): 1 to 10 µM

Reference: patent US20240180880A1, “METHODS OF USING EHMT2 INHIBITORS IN TREATING OR PREVENTING BLOOD DISORDERS” (Epizyme, Inc., priority 2017, published 2024)
